The values that follow come from publication PMC8982324 (Journal of Extracellular Vesicles, 2022).

The target of one assay is T1, full length NMT1 enzyme (Homo sapiens, UniProt P30419).
T1 sequence (P30419 1-496): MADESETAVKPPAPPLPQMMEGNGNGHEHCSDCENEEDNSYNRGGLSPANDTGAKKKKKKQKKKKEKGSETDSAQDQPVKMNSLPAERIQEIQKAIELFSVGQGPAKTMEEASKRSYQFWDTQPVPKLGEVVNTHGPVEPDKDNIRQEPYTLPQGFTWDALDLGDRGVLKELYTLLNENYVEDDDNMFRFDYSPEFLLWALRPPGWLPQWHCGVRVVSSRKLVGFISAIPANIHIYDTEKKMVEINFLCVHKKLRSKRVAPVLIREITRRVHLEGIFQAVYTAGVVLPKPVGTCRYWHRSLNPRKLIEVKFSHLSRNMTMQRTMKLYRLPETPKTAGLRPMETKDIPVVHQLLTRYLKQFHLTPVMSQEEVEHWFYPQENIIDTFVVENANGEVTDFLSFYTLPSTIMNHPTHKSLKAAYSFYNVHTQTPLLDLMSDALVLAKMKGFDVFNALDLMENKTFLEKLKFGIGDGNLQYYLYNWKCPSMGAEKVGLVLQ
Briefly: NMT1 activity assay. The conditions noted are these: synthesized octapeptide; average of three experiments.

For another assay, the system named is HEK293T‐eGFP cells. The assay is classed as cell-based.

No end group written: not given here.

Take ASNKSKPK [SRC(G2A)]: at full length NMT1 enzyme, the “substrate of NMT1 enzyme” value is “not a substrate of NMT1”. For the molecule `CCN(CC)CCCC(C)Nc1ccnc2cc(Cl)ccc12` (centres unmarked) [chloroquine], the “effect on Cas9 and VSV‐G protein levels in recipient cells” value with HEK293T‐eGFP cells is given as “greatly increased”.
